Structures can show the parent of a compound that is named as a salt. Where two headings read alike, the source gives them in different places.
What was measured:
[1] = tested on: thrombocyte aggregation; assay: Inhibition of collagen-induced platelet aggregation in platelet-rich plasma (Born and Cross); assay type: cell-based; settings: Homo sapiens, 10 min, read-out: Inhibition of platelet aggregation EC50
Procedure: The thrombocyte aggregatrion is measured using the Born and Cross method (J. Physiol. 170: 397 (1964)) in platelet-rich plasma taken from health volunteers. To inhibit coagulation the blood is mixed with 3.14% sodium citrate in a ratio by volume of 1:10.
Collagen-induced agaregation
The pattern of the decrease in optical density of the platelet suspension is photometrically measured and recorded after the addition of the aggregation-triggering substance. The rate of aggregation is concluded from the angle of inclination of the density curve. The point on the curve where there is maximum light transmittance is used to calculate the optical density.
The amount of collagen used is as small as possible but sufficient to produce an irreversible reaction curve. Standard commercial collagen produced by Hormonchemie of Munich is used.
Before the addition of the collagen the plasma is incubated for 10 minutes with the substance at 37° C.
From the measurements obtained an EC50 is determined graphically, indicating a 50% change in the optical density in terms of the inhibition of aggregation.

[2] = Tolerability after intravenous administration to mice; assay type: in vivo
[3] = target: human thrombocytes; assay: Inhibition of binding of 3H-BIBU 52 to human thrombocytes (fibrinogen-binding test); settings: 3H-BIBU 52 final concentration 5 nM, plasma, 20 minutes, ambient temperature; 50% inhibition of binding
Procedure: Inhibition of Binding of ^3 H-BIBU 52 to Human Thrombocytes
A suspension of human thrombocytes in plasma is incubated with ^3 H-BIBU 52 [=(3S,5S)-5-[(4'-amidino-4-biphenylyl)oxymethyl]-3-[(carboxyl)methyl]-2-pyrrolidinone[^3 -^3 H-4-biphenylyl]] […] The free and bound ligand is separated by centrifuging and quantitatively determined by scintillation counting. From the measurements obtained, the inhibition of ^3 H-BIBU 52 binding by the test substance is determined.
In order to do this, donor blood is taken from an anticubital vein and anticoagulated by trisodium citrate (final concentration 13 mM). The blood is centrifuged for 10 minutes at 170×g and the supernatant platelet-rich plasma (PRP) is removed. The remaining blood is vigorously centrifuged once more in order to obtain plasma. The PRP is diluted 1:10 with autologous plasma. 750 μl are incubated with 50 μl of physiological saline solution, 100 μl of test substance solution, 50 μl of ^4 C-sucrose (3,700 Bq) and 50 μl of ^3 H-BIBU 52 (final concentration: 5 nM) at ambient temperature for 20 minutes. In order to measure non-specific binding, instead of the test substance, 5 μl of BIBU 52 are put in (final concentration: 30 μM). The samples are centrifuged for 20 seconds at 10,000×g and the supernatant is drawn off. 100 μl therof are measured in order to determine the free ligand. The pellet is dissolved in 500 μl of 0.2N NaOH, 450 μl are mixed with 2 ml of scintillator and 25 μl of 5N HCl and measured. The residual plasma remaining in the pellet is determined from the ^14 C content, the bound ligand from the ^3 H measurement. After subtracting the non-specific binding, the pellet activity is plotted against the concentration of the test substance and the concentration for a 50% inhibition of binding is determined.

[4] = tested on: thrombocytes; assay: Collagen-induced aggregation of thrombocytes ex vivo after oral administration; assay type: in vivo; settings: rhesus monkey, oral administration of 1 mg/kg
Procedure: Moreover, the compound of Example 6(14), for example, inhibits the collagen-induced aggregation of thrombocytes in the rhesus monkey ex vivo after the oral administration of 1 mg/kg for up to four hours.

[5] = collagen-induced, platelet-rich plasma, 10 minutes incubation at 37° C., 50% change in optical density

Row | Compound | EC50 [1, 5] [nM] | Deaths after intravenous administration ([2]; mouse, in vivo, iv, 30 mg/kg) | IC50 [3] [nM] | EC50 ([1]; Platelet) [nM] | Duration of inhibition of collagen-induced aggregation of thrombocytes ex vivo [4] | Deaths after intravenous administration ([2]; mice, 30 mg/kg intravenous, three animals)
1 | NCC1CCc2cc(N3CCN([C@H]4CC[C@H](C(=O)O)CC4)C3=O)ccc2C1 (relative stereo) [1(44), 1-(2-aminomethyl-1,2,3,4-tetrahydro-6-naphthyl)-3-(trans-4-carboxycyclohexyl)-imidazolidin-2-one-hydrochloride] | 380 |  |  |  |  | 
2 | Cc1nn(-c2ccc(C(=N)N)cc2)c(=O)n1-c1ccc(CC(C)C(=O)O)cc1 (centres unmarked) [1(1), 2-(4-amidinophenyl)-4-[4-(2-carboxy-1-propyl)phenyl]-5-methyl-4H-1,2,4-triazol-3-one×0.5 water] | 30 | none of the three animals tested died | 0.8 |  |  | 
3 | N=C(N)c1ccc(-n2nc(-c3ccccc3)n(-c3ccc(CCC(=O)O)cc3)c2=O)cc1 [1(2), 2-(4-amidinophenyl)-4-[4-(2-carboxyethyl)phenyl]-5-phenyl-4H-1,2,4-triazol-3-one×2 water] | 70 |  | 1.2 |  |  | 
4 | NC1CCCc2cc(N3CCN(c4ccc(CCC(=O)O)cc4)C3=O)ccc21 (centres unmarked) [1(3), 1-(1-amino-1,2,3,4-tetrahydronaphthalin-6-yl)-3-[4-(2-carboxyethyl)phenyl]-imidazolidin-2-one-hydrochloride] | 270 |  | 64 |  |  | 
5 | Cc1nn(CCC2CCNCC2)c(=O)n1-c1ccc(CCC(=O)O)cc1 [1(4), 4-[4-(2-carboxyethyl)phenyl]-5-methyl-2-[2-(4-piperidinyl)ethyl]-4H-1,2,4-triazol-3-one-toluenesulphonate×water] | 500 | none of the three animals tested died | 280 |  |  | 
6 | O=C(O)CCc1ccc(N2CCN(CCC3CCNCC3)C2=O)cc1 [1(6), 1-[4-(2-carboxyethyl)phenyl]-3-[2-(4-piperidinyl)ethyl]-imidazolidin-2-one-hydrochloride×water] | 100 | none of the three animals tested died | 18 |  |  | 
7 | CCCC(Cc1ccc(-n2c(C)nn(CCC3CCNCC3)c2=O)cc1)C(=O)O (centres unmarked) [1(8), 4-[4-(2-carboxy-1-pentyl)phenyl]-5-methyl-2-(2-(4-piperidinyl)ethyl)-4H-1,2,4-triazol-3-one-hydrochloride] | 1200 |  | 760 |  |  | 
8 | CCCCS(=O)(=O)NC(Cc1ccc(N2CCN(c3ccc(C(=N)N)cc3)C2=O)cc1)C(=O)O (centres unmarked) [1(21), 1-(4-amidinophenyl)-3-[4-[2-(n-butylsulfonylamino)-2-carboxy-ethyl]phenyl]-imidazolidin-2-one-hydrochloride] | 36 |  | 1 |  |  | 
9 | Cl.O=C(O)CC[C@H]1CC[C@H](N2CCN(CCC3CCNCC3)C2=O)CC1 [1(39), 1-[trans-4-(2-carboxyethyl)cyclohexyl]-3-[2-(4-piperidinyl)ethyl]-imidazolidin-2-one-hydrochloride] | 86 | none of the three animals tested died | 25 |  |  | 
10 | O=C1N(c2ccc(C34CCN(CC3)CC4)cc2)CCN1[C@H]1CC[C@H](C(=O)O)CC1 [1(50), 1-(trans-4-carboxycyclohexyl)-3-[4-(4-quinuclidinyl)-phenyl]-imidazolidin-2-one-hydrochloride×1.2 H2 O] |  |  | 65 | 170 |  | 
11 | N=C(N)c1ccc(N2CCN(c3ccc(CCc4nnn[nH]4)cc3)C2=O)cc1 [2(5), 1-(4-amidinophenyl)-3-[4-[2-(5-tetrazolyl)ethyl]phenyl]-imidazolidin-2-one] | 3200 |  | 3500 |  |  | 
12 | N=C(N)c1ccc(-n2ncn([C@H]3CC[C@H](CCC(=O)O)CC3)c2=O)cc1 [4(4), 2-(4-amidinophenyl)-4-[trans-4-(2-carboxyethyl)-cyclohexyl]-4H-1,2,4-triazol-3-one] | 30 |  | 2.9 |  |  | 
13 | NCC1CCC(N2CCN(c3ccc(CCC(=O)O)cc3)C2=O)CC1 (centres unmarked) [4(5), 1-[4-(aminomethyl)cyclohexyl]-3-[4-(2-carboxyethyl)phenyl]-imidazolidin-2-one] | 3300 |  | 4100 |  |  | 
14 | O=C(O)C=Cc1ccc(N2CCN(CCC3CCNCC3)C2=O)c(F)c1 [4(13), 1-[4-(2-carboxyethenyl)-2-fluoro-phenyl]-3-[2-(4-piperidinyl)ethyl]-imidazolidin-2-one×1.1 HCl×1 H2 O] | 300 |  | 250 |  |  | 
15 | Cc1nn(-c2ccc(C(=N)N)cc2)c(=O)n1-c1cccc(CCC(=O)O)c1 [5(2), 2-(4-amidinophenyl)-4-[3-(2-carboxyethyl)phenyl]-5-methyl-4H-1,2,4-triazol-3-one] | 840 |  | 720 |  |  | 
16 | CCOC(=O)CCc1ccc(N2CCN(CCC3CCNCC3)C2=O)cc1 [6(34), 1-[4-[2-(ethoxycarbonyl)ethyl]phenyl]-3-(2-(4-piperidinyl)ethyl]-imidazolidin-2-one-hydrochloride] | 350 |  | 21000 |  |  | 
17 | CCOC(=O)CC[C@H]1CC[C@H](N2CCN(CCC3CCNCC3)C2=O)CC1 [6(35), 1-[trans-4-[2-(ethoxycarbonyl)ethyl]cyclohexyl]-3-[2-(4-piperidinyl)ethyl]-imidazolidin-2-one-hydrochloride] | 630 |  | 5700 |  |  | 
18 | CCOC(=O)CCc1ccc(N2CCN(CCC34CCN(CC3)CC4)C2=O)cc1 [6(37), 1-[2-(4-quinuclidinyl)ethyl]-3-[4-[2-(ethoxycarbonyl)-ethyl]phenyl]-imidazolidin-2-one-hydro-chloride] |  |  | 7100 | 380 |  | 
19 | CCOC(=O)[C@H]1CC[C@H](N2CCN(c3ccc(C4CCNCC4)cc3)C2=O)CC1 [6(40), 1-[trans-4-(ethoxycarbonyl)cyclohexyl]-3-[4-(4-piperidinyl)phenyl]-imidazolidin-2-one-hydrochloride] | 240 |  | 2500 |  |  | 
20 | O=C1N(C2CCC(C3CCNCC3)CC2)CCN1[C@H]1CC[C@H](C(=O)O)CC1 (some centres unmarked) [18(2)] | 110 |  |  |  |  | 
21 | N#CC1(c2ccc(N3CCN(CCCCC(=O)O)C3=O)cc2)CCNCC1 [24(1), 1-(4-carboxybutyl)-3-[4-(4-cyano-4-piperidinyl)-phenyl]-imidazolidin-2-one] | 940 |  | 150 |  |  | 
22 | CC1(c2ccc(N3CCN([C@H]4CC[C@H](C(=O)O)CC4)C3=O)cc2)CCNCC1 [24(2), 1-(trans-4-carboxycyclohexyl)-3-[4-(4-methyl-4-piperidinyl)phenyl]-imidazolidin-2-one] | 71 |  |  |  |  | 
23 | O=C(O)CO[C@H]1CC[C@H](N2CCN(CCC3CCNCC3)C2=O)CC1 [30(4), 1-[trans-4-[(carboxymethyl)oxy]cyclohexyl]-3-[2-(4-piperidinyl)ethyl]-imidazolidin-2-one-hydrochloride×0.3 H2 O] | 490 |  | 200 |  |  | 
24 | Cc1nn(-c2ccc(C(=N)N)cc2)c(=O)n1[C@H]1CC[C@@H](CCC(=O)O)CC1 [Example 4, 2-(4-Amidinophenyl)-4-[cis-4-(2-carboxyethyl)cyclo-hexyl]-5-methyl-4H-1,2,4-triazol-3-one] | 130 |  |  |  |  | 
25 | Cc1nn(-c2ccc(C(=N)N)cc2)c(=O)n1-c1ccc(CCC(=O)OC2CCCCC2)cc1.Cl [Example 6(14), 2-(4-amidinophenyl)-4-[4-[2-(cyclohexyloxycarbonyl)-ethyl]phenyl]-5-methyl-4H-1,2,4-triazol-3-one-hydrochloride] | 40 |  | 250 |  | up to four | 
26 | CN1CCC(CCN2CCN(c3ccc(CCC(=O)O)cc3)C2=O)CC1 [Example 15] | 4300 |  | 12000 |  |  | 
27 | Cl.O=C1N(c2ccc(C3CCNCC3)cc2)CCN1[C@H]1CC[C@H](C(=O)O)CC1 [Example 17, 1-(trans-4-Carboxycyclohexyl)-3-[4-(4-piperidinyl)phenyl]-imidazolidin-2-one-hydrochloride] | 43 | none of the three animals tested died | 16 |  |  | 
28 | Cl.O=C(O)CCc1ccc(N2CCN(CCC34CCN(CC3)CC4)C2=O)cc1 [Example 26, 1-[4-(2-Carboxyethyl)phenyl]-3-[2-(4-quinuclidinyl)ethyl]-imidazolidin-2-one-hydrochloride] |  |  | 26 | 84 |  | none of the three animals tested died
